Like-named read-outs stand apart in the source and are kept apart here. Starred links: 1 amine or outer side, 2 acyl side, 3 side chain; linkers in the order of their positions; H or OH if unused. Positions of bridges follow the written chain, without caps; N, C: chain ends. Non-standard residues stand in square brackets, D forms with d. Residues, ends and D or L forms follow the SMILES beside them. ξ: configuration not given here. Phe(3-Me) = Cc1cccc(C[C@H](N)C(=O)O)c1; γGlu = O=C(O)[C@H](CCC(=O)[*:2])N[*:1]; 2Nal = N[C@@H](Cc1ccc2ccccc2c1)C(=O)O; βAsp = O=C(O)[C@H](CC(=O)[*:2])N[*:1]; Ahp(2) = CCCCC[C@H](N)C(=O)O; NMeNle = CCCC[C@H](NC)C(=O)O; Tle = CC(C)(C)[C@H](N)C(=O)O; NHexGly = CCCCCCNCC(=O)O; Nle = CCCC[C@H](N)C(=O)O; Orn = NCCC[C@H](N)C(=O)O; Aun = NCCCCCCCCCCC(=O)O; Aze = O=C(O)[C@@H]1CCN1; AEEA = NCCOCCOCC(=O)O; ξS = NC(CO)C(=O)O
Biological target: T1, mouse VISTA (mVISTA) (Mus musculus, UniProt Q9D659)
T1 construct: expressed in transfected cells; host or cells: Human embryonic kidney 293T cells
T1 sequence (Q9D659 33-308): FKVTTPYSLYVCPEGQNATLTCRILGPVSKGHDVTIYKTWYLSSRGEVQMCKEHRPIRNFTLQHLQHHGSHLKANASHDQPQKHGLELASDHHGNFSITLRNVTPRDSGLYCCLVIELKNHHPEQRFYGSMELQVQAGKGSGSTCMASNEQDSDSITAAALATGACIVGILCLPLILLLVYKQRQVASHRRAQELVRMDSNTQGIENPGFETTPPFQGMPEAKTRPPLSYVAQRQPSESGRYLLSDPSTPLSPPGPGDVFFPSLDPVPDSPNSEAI
Assay: Cell-Based Binding High-Content Assay For mVISTA (HC CBA mVISTA)
How it was run: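 Competition of compound with a biotinylated peptide (final 2 nM, 30 min at RT) for binding to mVISTA on 293T cells, run under no-wash or wash (1 h compound preincubation then removal) formats. Readout by Alexa 647–streptavidin imaging on a high-content platform; four-parameter logistic fit gave IC50.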

[1] = cell-based binding high-content assay, mVISTA, the 16th table, read-out: HC CBA mVISTA IC50

Structure (SMILES) | IC50 (read-out: HC CBA mVISTA IC50) | further results
CCCCCCN1CC(=O)N[C@@H](Cc2ccc(O)cc2)C(=O)N[C@@H](C(C)C)C(=O)NCC(=O)N[C@@H](CCCNC(=N)N)C(=O)N[C@@H](CC(C)C)C(=O)N[C@@H](CCCCC)C(=O)N2CCC[C@H]2C(=O)N[C@@H](C(C)C)C(=O)N[C@@H](CC(=O)O)C(=O)N[C@H](C(=O)NCC(N)=O)CSCC(=O)N[C@@H](Cc2ccc3ccccc3c2)C(=O)N[C@@H](Cc2ccc(O)cc2)C(=O)N[C@@H](CC(=O)O)C1=O [Ex 1283] ({CH2CO}-[2Nal]YD[NHexGly]YVGRL[Ahp(2)]PVDCG-NH2; thioether N-14) |  | IC50 [1]: 18.9 nM
CCCCCCN1CC(=O)N[C@@H](Cc2ccc(O)cc2)C(=O)N[C@@H](CCCC)C(=O)N[C@@H](CC(=O)O)C(=O)N[C@@H](CCCNC(=N)N)C(=O)N(C)[C@@H](CCCC)C(=O)N[C@@H](CCCCC)C(=O)N2CCC[C@H]2C(=O)N[C@@H](C(C)(C)C)C(=O)N[C@@H](CO)C(=O)N[C@H](C(=O)N[C@@H](CC(N)=O)C(=O)O)CSCC(=O)N[C@@H](Cc2ccccc2)C(=O)N[C@@H](Cc2c[nH]c3ccccc23)C(=O)N[C@@H](CC(=O)O)C1=O [Example 1399] ({CH2CO}-FWD[NHexGly]Y[Nle]DR[NMeNle][Ahp(2)]P[Tle]SCN-OH; thioether N-14) | 27.3 nM | 
CCCCCCN1CC(=O)N[C@@H](Cc2ccc(O)cc2)C(=O)N[C@@H](CCCCC)C(=O)N[C@@H](CCCCN)C(=O)N[C@@H](CCCNC(=N)N)C(=O)N[C@@H](CC(C)C)C(=O)N[C@@H](CCCCC)C(=O)N2CCC[C@H]2C(=O)N[C@@H](C(C)C)C(=O)N[C@@H](CO)C(=O)N[C@H](C(=O)NCC(N)=O)CSCC(=O)N[C@@H](Cc2ccccc2)C(=O)N[C@@H](Cc2ccc(O)cc2)C(=O)N[C@@H](CC(=O)O)C1=O [Example 1056] ({CH2CO}-FYD[NHexGly]Y[Ahp(2)]KRL[Ahp(2)]PVSCG-NH2; thioether N-14) |  | IC50 (293T cells expressing mouse VISTA, competition with biotinylated peptide (2 nM), read-out: HC CBA mVISTA IC50): 17.1 nM
CCCCCCN1CC(=O)N[C@@H](Cc2ccc(O)cc2)C(=O)N[C@@H](CCCC)C(=O)N[C@@H](CC(=O)O)C(=O)N[C@@H](CCCNC(=N)N)C(=O)N(C)[C@@H](CCCC)C(=O)N[C@@H](CCCCC)C(=O)N2CCC[C@H]2C(=O)N[C@@H](C(C)C)C(=O)N[C@@H](CC(=O)O)C(=O)N[C@H](C(=O)N[C@@H](CC(=O)O)C(N)=O)CSCC(=O)N[C@@H](Cc2cccc(C)c2)C(=O)N[C@@H](Cc2ccc(O)cc2)C(=O)N[C@@H](CC(=O)O)C1=O [compound 1448] ({CH2CO}-[Phe(3-Me)]YD[NHexGly]Y[Nle]DR[NMeNle][Ahp(2)]PVDCD-NH2; thioether N-14) |  | IC50 (the 19th table, scaffold drawing 22, read-out: HC CBA mVISTA IC50): 14.2 nM
CCCCCCN1CC(=O)N[C@@H](Cc2ccc(O)cc2)C(=O)N[C@@H](CCCC)C(=O)N[C@@H](CC(N)=O)C(=O)N[C@@H](CCCNC(=N)N)C(=O)N(C)[C@@H](CCCC)C(=O)N[C@@H](CCCCC)C(=O)N2CCC[C@H]2C(=O)N[C@@H](C(C)C)C(=O)N[C@@H](CC(=O)O)C(=O)N[C@H](C(=O)NCC(=O)O)CSCC(=O)N[C@@H](Cc2ccccc2)C(=O)N[C@@H](Cc2cccc(C)c2)C(=O)N[C@@H](CC(=O)O)C1=O [compound 1345] ({CH2CO}-F[Phe(3-Me)]D[NHexGly]Y[Nle]NR[NMeNle][Ahp(2)]PVDCG-OH; thioether N-14) | 12.7 nM | 
CCCCCCN1CC(=O)N[C@@H](Cc2ccc(O)cc2)C(=O)N[C@@H](CCCC)C(=O)N[C@@H](CC(N)=O)C(=O)N[C@@H](CCCNC(=N)N)C(=O)N(C)[C@@H](CCCC)C(=O)N[C@@H](CCCCC)C(=O)N2CCC[C@H]2C(=O)N[C@@H](C(C)(C)C)C(=O)N[C@@H](CO)C(=O)N[C@H](C(=O)N[C@@H](CC(=O)NCCOCCOCC(=O)NCCCCCCCCCCC(=O)O)C(=O)O)CSCC(=O)N[C@@H](Cc2ccc3ccccc3c2)C(=O)N[C@@H](Cc2ccc(O)cc2)C(=O)N[C@@H](CC(=O)O)C1=O [Example 2195] ({CH2CO}-[2Nal]YD[NHexGly]Y[Nle]NR[NMeNle][Ahp(2)]P[Tle]SC[βAsp][AEEA][Aun]-OH; thioether N-14) | 30.3 nM | 
CCCCCCN1CC(=O)N[C@@H](Cc2ccc(O)cc2)C(=O)N[C@@H](CC(C)C)C(=O)NCC(=O)N[C@@H](CCCNC(=N)N)C(=O)N[C@@H](CC(C)C)C(=O)N[C@@H](CCCCC)C(=O)N2CCC[C@H]2C(=O)N[C@@H](C(C)C)C(=O)N[C@@H](CO)C(=O)N[C@H](C(=O)NCC(N)=O)CSCC(=O)N[C@@H](Cc2ccc3ccccc3c2)C(=O)N[C@@H](Cc2ccc(O)cc2)C(=O)N[C@@H](CC(=O)O)C1=O [Ex 1275] ({CH2CO}-[2Nal]YD[NHexGly]YLGRL[Ahp(2)]PVSCG-NH2; thioether N-14) |  | IC50 [1]: 35.9 nM
CCCCCCN1CC(=O)N[C@@H](Cc2ccc(O)cc2)C(=O)N[C@@H](CCCCC)C(=O)N[C@@H](CC(N)=O)C(=O)N[C@@H](CCCNC(=N)N)C(=O)N(C)[C@@H](CCCC)C(=O)N[C@@H](CCCCC)C(=O)N2CCC[C@H]2C(=O)N[C@@H](C(C)C)C(=O)N[C@@H](C(C)C)C(=O)N[C@H](C(=O)NC(CO)C(=O)O)CSCC(=O)N[C@@H](Cc2ccccc2)C(=O)N[C@@H](Cc2cccc(C)c2)C(=O)N[C@@H](CC(=O)O)C1=O (some centres unmarked) [compound 1346] ({CH2CO}-F[Phe(3-Me)]D[NHexGly]Y[Ahp(2)]NR[NMeNle][Ahp(2)]PVVC[ξS]-OH; thioether N-14) | 6.1 nM | 
CCCCCCN1CC(=O)N[C@@H](Cc2ccc(O)cc2)C(=O)N[C@@H](CCCC)C(=O)N[C@@H](CC(N)=O)C(=O)N[C@@H](CCCNC(=N)N)C(=O)N(C)[C@@H](CCCC)C(=O)N[C@@H](CCCCC)C(=O)N2CCC[C@H]2C(=O)N[C@@H](C(C)C)C(=O)N[C@@H](CC(N)=O)C(=O)N[C@H](C(=O)NCC(=O)O)CSCC(=O)N[C@@H](Cc2ccc3ccccc3c2)C(=O)N[C@@H](Cc2c[nH]c3ccccc23)C(=O)N[C@@H](CC(=O)O)C1=O [compound 1249] ({CH2CO}-[2Nal]WD[NHexGly]Y[Nle]NR[NMeNle][Ahp(2)]PVNCG-OH; thioether N-14) |  | IC50 (cell-based binding high-content assay, mVISTA, the 15th table, read-out: HC CBA mVISTA IC50): 13.9 nM
CCCCCCN1CC(=O)N[C@@H](Cc2ccc(O)cc2)C(=O)N[C@@H](CC(C)C)C(=O)N[C@@H](CC(N)=O)C(=O)N[C@@H](CCCNC(=N)N)C(=O)N[C@@H](CC(C)C)C(=O)N[C@@H](CCCCC)C(=O)N2CCC[C@H]2C(=O)N[C@@H](C(C)C)C(=O)N[C@@H](CO)C(=O)N[C@H](C(=O)NCC(=O)NCCOCCOCC(=O)N[C@@H](CC(=O)O)C(=O)NCCOCCOCC(=O)NCCCCCCCCCCC(=O)O)CSCC(=O)N[C@@H](Cc2ccccc2)C(=O)N[C@@H](Cc2ccc(O)cc2)C(=O)N[C@@H](CC(=O)O)C1=O [compound 2001] ({CH2CO}-FYD[NHexGly]YLNRL[Ahp(2)]PVSCG[AEEA]D[AEEA][Aun]-OH; thioether N-14) |  | IC50 (cell-based binding high-content assay, mVISTA, read-out: HC CBA miPr ISTA IC50): 19.8 nM
CCCCCCN1CC(=O)N[C@@H](Cc2ccc(O)cc2)C(=O)N[C@@H](CCCC)C(=O)N[C@@H](CC(N)=O)C(=O)N[C@@H](CCCNC(=N)N)C(=O)N(C)[C@@H](CCCC)C(=O)N[C@@H](CCCCC)C(=O)N2CCC[C@H]2C(=O)N[C@@H](C(C)(C)C)C(=O)N[C@@H](CO)C(=O)N[C@H](C(=O)NCCOCCOCC(=O)N[C@@H](CCC(=O)NCCOCCOCC(=O)NCCCCCCCCCCC(=O)O)C(=O)O)CSCC(=O)N[C@@H](Cc2ccccc2)C(=O)N[C@@H](Cc2cccc(C)c2)C(=O)N[C@@H](CC(=O)O)C1=O [compound 2225] ({CH2CO}-F[Phe(3-Me)]D[NHexGly]Y[Nle]NR[NMeNle][Ahp(2)]P[Tle]SC[AEEA][γGlu][AEEA][Aun]-OH; thioether N-14) | 30.8 nM | 
CCCCCCN1CC(=O)N[C@@H](Cc2ccc(O)cc2)C(=O)N[C@@H](CC(C)C)C(=O)N[C@@H](CC(N)=O)C(=O)N[C@@H](CCCN)C(=O)N(C)[C@@H](CCCC)C(=O)N[C@@H](CCCCC)C(=O)N2CCC[C@H]2C(=O)N[C@@H](C(C)(C)C)C(=O)N[C@@H](C(C)C)C(=O)N[C@H](C(=O)NCCOCCOCC(=O)N[C@@H](CCC(=O)NCCOCCOCC(=O)NCCCCCCCCCCC(=O)O)C(=O)O)CSCC(=O)N[C@@H](Cc2ccccc2)C(=O)N[C@@H](Cc2c[nH]c3ccccc23)C(=O)N[C@@H](CC(=O)O)C1=O [compound 2282] ({CH2CO}-FWD[NHexGly]YLN[Orn][NMeNle][Ahp(2)]P[Tle]VC[AEEA][γGlu][AEEA][Aun]-OH; thioether N-14) | 34.9 nM | 
CCCCCCN1CC(=O)N[C@@H](Cc2ccc(O)cc2)C(=O)N[C@@H](CCCC)C(=O)N[C@@H](CC(N)=O)C(=O)N[C@@H](CCCNC(=N)N)C(=O)N(C)[C@@H](CCCC)C(=O)N[C@@H](CCCCC)C(=O)N2CC[C@H]2C(=O)N[C@@H](C(C)(C)C)C(=O)N[C@@H](CO)C(=O)N[C@H](C(=O)N[C@@H](CC(=O)NCCOCCOCC(=O)NCCCCCCCCCCC(=O)O)C(=O)O)CSCC(=O)N[C@@H](Cc2ccccc2)C(=O)N[C@@H](Cc2c[nH]c3ccccc23)C(=O)N[C@@H](CC(=O)O)C1=O [Example 2187] ({CH2CO}-FWD[NHexGly]Y[Nle]NR[NMeNle][Ahp(2)][Aze][Tle]SC[βAsp][AEEA][Aun]-OH; thioether N-14) | 13.3 nM | 
CCCCCCN1CC(=O)N[C@@H](Cc2ccc(O)cc2)C(=O)N[C@@H](CCCCC)C(=O)NCC(=O)N[C@@H](CCCNC(=N)N)C(=O)N[C@@H](CC(C)C)C(=O)N[C@@H](CCCCC)C(=O)N2CCC[C@H]2C(=O)N[C@@H](C(C)C)C(=O)N[C@@H](CO)C(=O)N[C@H](C(=O)NCC(N)=O)CSCC(=O)N[C@@H](Cc2ccccc2)C(=O)N[C@@H](Cc2ccccc2)C(=O)N[C@@H](CC(=O)O)C1=O [compound 1325] ({CH2CO}-FFD[NHexGly]Y[Ahp(2)]GRL[Ahp(2)]PVSCG-NH2; thioether N-14) | 24.3 nM | 
